In US20260070902A1, “SULFONYL DERIVATIVES AS CCR6 INHIBITORS” (Hoffmann-La Roche Inc., priority 2022, published 2026):

target: T1, human CCR6 (Homo sapiens, UniProt P51684); assay: Human CCR6-CRE reporter assay; type: cell-based; set-up: The second construct contained the open reading frame of human CCR6 in the pUNO1 backbone; host or cells: 293FT cells; conditions: relative -Log IC50; 293FT cells transfected with human CCR6 and CRE-luciferase reporter; 6 μM Forskolin, 6 nM CCL20; 5 h
T1 sequence (P51684 1-374): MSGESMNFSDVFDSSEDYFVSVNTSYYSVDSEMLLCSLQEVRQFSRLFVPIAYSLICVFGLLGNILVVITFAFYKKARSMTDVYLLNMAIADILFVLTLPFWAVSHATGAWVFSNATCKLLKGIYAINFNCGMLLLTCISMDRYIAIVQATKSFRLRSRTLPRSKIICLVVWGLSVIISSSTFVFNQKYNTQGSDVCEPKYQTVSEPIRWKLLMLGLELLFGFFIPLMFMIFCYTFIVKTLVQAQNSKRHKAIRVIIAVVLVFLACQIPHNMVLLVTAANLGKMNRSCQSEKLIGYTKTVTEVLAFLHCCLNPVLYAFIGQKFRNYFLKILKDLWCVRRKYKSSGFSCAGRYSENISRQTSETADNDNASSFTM
Method: Human CCR6-CRE Reporter Assay
293FT cells were transfected with 2 constructs using TransIT-293 (Mirus). The first construct (pGL4.29, Promega) expressed the luciferase reporter gene luc2P in response to the binding of cAMP-induced CREB to the CREelement in its promoter. The second construct contained the open reading frame of human CCR6 in the pUNO1 backbone under the control of an enhanced CMV promoter (InVivoGen). 48 h after transfection, cells were harvested and diluted to 750,000 cells/ml in culture medium (DMEM, 10% FBS, 1× pen/strep (Gibco 15140)). Compounds were 2.5-fold serially diluted in DMSO. Further dilutions were made in assay medium (DMEM, 10% FBS, 1× pen/strep, 6 μM Forskolin, 6 nM CCL20). 4 μl of the compound solution was added to a white MW384 plate, followed by 20 μl of the cell suspension. Final DMSO concentration in the assay was 0.1%. The MW384 plate was placed in an incubator at 37° C., 5% CO2 for 5 h. Luciferase activity was determined by addition of 24 μl of a 2.5× diluted BriteLite luciferase solution (Perkin Elmer), followed by luminescence measurement using a VICTOR Plate reader (Perkin Elmer). […] The relative −Log IC50 was determined with GraphPad Prism 9 using a four-parameter dose-response model.

Row | IC50 | Structure (SMILES)
1 | 501 nM | N=S(=O)(c1ccc(-c2ccn3ncnc3c2)cc1)[C@H]1CC[C@H](Nc2ccc(S(F)(F)(F)(F)F)cc2)CC1 (stereo partly drawn) [Example 94, [trans-4-{[4-(pentafluoro-λ^6-sulfanyl)phenyl]Amino}cyclohexyl](4-{[1,2,4]triazolo[1,5-a]pyridin-7-yl}phenyl)(imino)-λ^6-sulfanone]
2 | 794 nM | CN(C)C(=O)c1ccc(-c2ccc(S(=N)(=O)[C@H]3CC[C@H](Nc4ccc(S(F)(F)(F)(F)F)cc4)CC3)cc2)cn1 (stereo partly drawn) [Example 100, N,N-dimethyl-5-(4-{[trans-4-{[4-(pentafluoro-λ^6-sulfanyl)phenyl]Amino}cyclohexyl]sulfonimidoyl}phenyl)pyridine-2-carboxamide]
3 | 1260 nM | Cc1cn2cc(-c3ccc(S(=N)(=O)[C@H]4CC[C@H](Nc5ccc(S(F)(F)(F)(F)F)cc5)CC4)cc3)ncc2n1 (stereo partly drawn) [Example 103, (4-{2-methylimidazo[1,2-a]pyrazin-6-yl}phenyl)[trans-4-{[4-(pentafluoro-λ^6-sulfanyl)phenyl]Amino}cyclohexyl](imino)-λ^6-sulfanone]
4 | 1580 nM | CN(C)C(=O)c1ccc(-c2ccc(S(=N)(=O)[C@H]3CC[C@H](Nc4ccc(S(F)(F)(F)(F)F)cc4)CC3)cc2)nc1 (stereo partly drawn) [Example 106, N,N-dimethyl-6-(4-{[trans-4-{[4-(pentafluoro-λ^6-sulfanyl)phenyl]Amino}cyclohexyl]sulfonimidoyl}phenyl)pyridine-3-carboxamide]
5 | 316 nM | CNC(=O)c1cc(-c2ccc(S(=N)(=O)[C@H]3CC[C@H](Nc4ccc(S(F)(F)(F)(F)F)cc4)CC3)cc2)ccn1 (stereo partly drawn) [Example 110, N-methyl-4-(4-{[trans-4-{[4-(pentafluoro-λ^6-sulfanyl)phenyl]Amino}cyclohexyl]sulfonimidoyl}phenyl)pyridine-2-carboxamide]
6 | 398 nM | N=S(=O)(c1ccc(-c2ccc3c(c2)C(=O)NCC3)cc1)[C@H]1CC[C@H](Nc2ccc(S(F)(F)(F)(F)F)cc2)CC1 (stereo partly drawn) [Example 114, 7-(4-{[trans-4-{[4-(pentafluoro-λ^6-sulfanyl)phenyl]Amino}cyclohexyl]sulfonimidoyl}phenyl)-1,2,3,4-tetrahydroisoquinolin-1-one]
7 | 398 nM | N=S(=O)(c1ccc(-c2ccc3c(c2)C(=O)NC3)cc1)[C@H]1CC[C@H](Nc2ccc(S(F)(F)(F)(F)F)cc2)CC1 (stereo partly drawn) [Example 115, 6-(4-{[trans-4-{[4-(pentafluoro-λ^6-sulfanyl)phenyl]Amino}cyclohexyl]sulfonimidoyl}phenyl)-2,3-dihydro-1H-isoindol-1-one]
8 | 79.4 nM | CC(C)NC(=O)c1cccc(-c2ccc(S(=O)(=O)[C@H]3CC[C@H](Nc4ccc(S(F)(F)(F)(F)F)cc4)CC3)cc2)c1 [Example 141, N-(propan-2-yl)-4′-{[trans-4-{[4-(pentafluoro-λ^6-sulfanyl)phenyl]amino}cyclohexyl]sulfonyl}-[1,1′-biphenyl]-3-carboxamide]

Further lines, the compound ahead of its results:

Row | Structure (SMILES) | IC50
9 | N=S(=O)(c1ccc(-c2ccn3ccnc3c2)cc1)[C@H]1CC[C@H](Nc2ccc(S(F)(F)(F)(F)F)cc2)CC1 (stereo partly drawn) [Example 93, (4-{imidazo[1,2-a]pyridin-7-yl}phenyl)[trans-4-{[4-(pentafluoro-λ^6-sulfanyl)phenyl]Amino}cyclohexyl](imino)-λ^6-sulfanone] | 398 nM
10 | CN(C)C(=O)c1cccc(-c2ccc(S(=N)(=O)[C@H]3CC[C@H](Nc4ccc(S(F)(F)(F)(F)F)cc4)CC3)cc2)c1 (stereo partly drawn) [Example 97, N,N-dimethyl-4′-{[trans-4-{[4-(pentafluoro-λ^6-sulfanyl)phenyl]Amino}cyclohexyl]sulfonimidoyl}-[1,1′-biphenyl]-3-carboxamide] | 1000 nM
11 | Cc1nnc2cc(-c3ccc(S(=N)(=O)[C@H]4CC[C@H](Nc5ccc(S(F)(F)(F)(F)F)cc5)CC4)cc3)ccn12 (stereo partly drawn) [Example 104, (4-{3-methyl-[1,2,4]triazolo[4,3-a]pyridin-7-yl}phenyl)[trans-4-{[4-(pentafluoro-λ^6-sulfanyl)phenyl]Amino}cyclohexyl](imino)-λ^6-sulfanone] | 398 nM
12 | CNC(=O)c1ccc(-c2ccc(S(=N)(=O)[C@H]3CC[C@H](Nc4ccc(S(F)(F)(F)(F)F)cc4)CC3)cc2)nc1 (stereo partly drawn) [Example 107, N-methyl-6-(4-{[trans-4-{[4-(pentafluoro-λ^6-sulfanyl)phenyl]Amino}cyclohexyl]sulfonimidoyl}phenyl)pyridine-3-carboxamide] | 1580 nM
13 | N=S(=O)(c1ccc(-c2ccc(C(N)=O)nc2)cc1)[C@H]1CC[C@H](Nc2ccc(S(F)(F)(F)(F)F)cc2)CC1 (stereo partly drawn) [Example 108, 5-(4-{[trans-4-{[4-(pentafluoro-λ^6-sulfanyl)phenyl]Amino}cyclohexyl]sulfonimidoyl}phenyl)pyridine-2-carboxamide] | 501 nM
14 | CN(C)C(=O)c1cc(-c2ccc(S(=N)(=O)[C@H]3CC[C@H](Nc4ccc(S(F)(F)(F)(F)F)cc4)CC3)cc2)ccn1 (stereo partly drawn) [Example 109, N,N-dimethyl-4-(4-{[trans-4-{[4-(pentafluoro-λ^6-sulfanyl)phenyl]Amino}cyclohexyl]sulfonimidoyl}phenyl)pyridine-2-carboxamide] | 2000 nM
15 | N=S(=O)(c1ccc(-c2ccc(C(N)=O)cn2)cc1)[C@H]1CC[C@H](Nc2ccc(S(F)(F)(F)(F)F)cc2)CC1 (stereo partly drawn) [Example 111, 6-(4-{[trans-4-{[4-(pentafluoro-λ^6-sulfanyl)phenyl]Amino}cyclohexyl]sulfonimidoyl}phenyl)pyridine-3-carboxamide] | 1000 nM
16 | N=S(=O)(c1ccc(-c2ccc3c(c2)CNC3=O)cc1)[C@H]1CC[C@H](Nc2ccc(S(F)(F)(F)(F)F)cc2)CC1 (stereo partly drawn) [Example 112, 5-(4-{[trans-4-{[4-(pentafluoro-λ^6-sulfanyl)phenyl]Amino}cyclohexyl]sulfonimidoyl}phenyl)-2,3-dihydro-1H-isoindol-1-one] | 398 nM
17 | N=S(=O)(c1ccc(-c2ccc3c(c2)CCNC3=O)cc1)[C@H]1CC[C@H](Nc2ccc(S(F)(F)(F)(F)F)cc2)CC1 (stereo partly drawn) [Example 113, 6-(4-{[trans-4-{[4-(pentafluoro-λ^6-sulfanyl)phenyl]Amino}cyclohexyl]sulfonimidoyl}phenyl)-1,2,3,4-tetrahydroisoquinolin-1-one] | 316 nM
18 | N=S(=O)(c1ccc(-c2ccc3c(c2)CC(=O)N3)cc1)[C@H]1CC[C@H](Nc2ccc(S(F)(F)(F)(F)F)cc2)CC1 (stereo partly drawn) [Example 116, 5-(4-{[trans-4-{[4-(pentafluoro-λ^6-sulfanyl)phenyl]Amino}cyclohexyl]sulfonimidoyl}phenyl)-2,3-dihydro-1H-indol-2-one] | 200 nM
19 | N=S(=O)(c1ccc(-c2ccc3c(c2)NC(=O)C3)cc1)[C@H]1CC[C@H](Nc2ccc(S(F)(F)(F)(F)F)cc2)CC1 (stereo partly drawn) [Example 117, 6-(4-{[trans-4-{[4-(pentafluoro-λ^6-sulfanyl)phenyl]Amino}cyclohexyl]sulfonimidoyl}phenyl)-2,3-dihydro-1H-indol-2-one] | 251 nM
20 | N=S(=O)(c1ccc(-c2ccc3n[nH]c(=O)n3c2)cc1)[C@H]1CC[C@H](Nc2ccc(S(F)(F)(F)(F)F)cc2)CC1 (stereo partly drawn) [Example 119, 6-(4-{[trans-4-{[4-(pentafluoro-λ^6-sulfanyl)phenyl]Amino}cyclohexyl]sulfonimidoyl}phenyl)-2H,3H-[1,2,4]triazolo[4,3-a]pyridin-3-one] | 316 nM
21 | N#Cc1c[nH]c2ccc(-c3ccc(S(=N)(=O)N4CCC(Nc5ccc(S(F)(F)(F)(F)F)cc5)CC4)cc3)cc12 (centres unmarked) [Example 120, 5-{4-[(4-{[4-(pentafluoro-λ^6-sulfanyl)phenyl]Amino}piperidin-1-yl)sulfonimidoyl]phenyl}-1H-indole-3-carbonitrile] | 63.1 nM
22 | N#Cc1ccc(-c2ccc(S(=N)(=O)N3CCC(Nc4ccc(S(F)(F)(F)(F)F)cc4)CC3)cc2)cc1 (centres unmarked) [Example 122, 4′-[(4-{[4-(pentafluoro-λ^6-sulfanyl)phenyl]Amino}piperidin-1-yl)sulfonimidoyl]-[1,1′-biphenyl]-4-carbonitrile] | 398 nM
23 | CN(C)c1cnc2ccc(-c3ccc(S(=O)(=O)[C@H]4CC[C@H](Nc5ccc(S(F)(F)(F)(F)F)cc5)CC4)cc3)cn12 [Example 143, N,N-dimethyl-6-(4-{[trans-4-{[4-(pentafluoro-λ^6-sulfanyl)phenyl]amino}cyclohexyl]sulfonyl}phenyl)imidazo[1,2-a]pyridin-3-amine] | 100 nM
